In ChEMBL document CHEMBL1152854, “Synthesis, characterization and in vitro antibacterial activity of new steroidal 5-en-3-oxazolo and thiazoloquinoxaline” (Eur J Med Chem, 2008):
≈ marks a conversion by molar mass, not a printed value.

How the values were obtained:
[1] = test system: Salmonella typhimurium; test: Antimicrobial activity against Salmonella Typhimurium at 200 ug/mL after 24 hrs by disk diffusion method; assay type: functional, Salmonella enterica subsp. enterica serovar Typhimurium; conditions: Salmonella enterica, read-out: IZ
[2] = test system: Staphylococcus aureus; test: Antimicrobial activity against Staphylococcus aureus at 200 ug/mL after 24 hrs by disk diffusion method; assay type: functional; conditions: read-out: IZ
[3] = test system: Staphylococcus aureus; test: Antimicrobial activity against Staphylococcus aureus after 24 hrs by broth microdilution method; assay type: functional, organism-based
[4] = test system: Salmonella typhimurium; test: Antimicrobial activity against Salmonella Typhimurium after 24 hrs by broth microdilution method; assay type: functional, organism-based, Salmonella enterica subsp. enterica serovar Typhimurium; conditions: Salmonella enterica
[5] = test system: Escherichia coli; test: Antimicrobial activity against Escherichia coli at 200 ug/mL after 24 hrs by disk diffusion method; assay type: functional; conditions: read-out: IZ
[6] = test system: Escherichia coli; test: Antimicrobial activity against Escherichia coli after 24 hrs by broth microdilution method; assay type: functional, organism-based
[7] = test system: Streptococcus pyogenes; test: Antimicrobial activity against Streptococcus pyogenes at 200 ug/mL after 24 hrs by disk diffusion method; assay type: functional; conditions: read-out: IZ
[8] = test system: Streptococcus pyogenes; test: Antimicrobial activity against Streptococcus pyogenes after 24 hrs by broth microdilution method; assay type: functional, organism-based

| IC50 [3] [µg/mL] | MIC [3] [µg/mL] | IC50 [4] [µg/mL] | MIC [4] [µg/mL] | IC50 [6] [µg/mL] | MIC [6] [µg/mL] | IC50 [8] [µg/mL] | MIC [8] [µg/mL] | Structure (SMILES) | zone of inhibition at 200 µg/mL [1] [mm] | zone of inhibition at 200 µg/mL [2] [mm] | zone of inhibition at 200 µg/mL [5] [mm] | zone of inhibition at 200 µg/mL [7] [mm] |
| --- | --- | --- | --- | --- | --- | --- | --- | --- | --- | --- | --- | --- |
| 3.65 (≈ 8.26 µM) | 6.25 (≈ 14.1 µM) | 1.94 (≈ 4.39 µM) | 3.12 (≈ 7.06 µM) | 1.88 (≈ 4.26 µM) | 3.12 (≈ 7.06 µM) | 3.68 (≈ 8.33 µM) | 6.25 (≈ 14.1 µM) | CC(C)CCC[C@@H](C)[C@H]1CC[C@H]2[C@@H]3CC=C4C/C(=N/NC(N)=O)CC[C@]4(C)[C@H]3CC[C@]12C | 15.5 | 14.6 | 14.2 | 13.4 |
| 1.82 (≈ 4.98 µM) | 3.12 (≈ 8.54 µM) | 1.85 (≈ 5.06 µM) | 3.12 (≈ 8.54 µM) | 1.9 (≈ 5.2 µM) | 3.12 (≈ 8.54 µM) | 1.8 (≈ 4.93 µM) | 3.12 (≈ 8.54 µM) | CC1(C)S[C@@H]2[C@H](NC(=O)[C@H](N)c3ccc(O)cc3)C(=O)N2[C@H]1C(=O)O [AMOXICILLIN] | 17.2 | 17 | 20 | 18.2 |

More lines, now with the values behind:

| Structure (SMILES) | IC50 [3] [µg/mL] | MIC [3] [µg/mL] | IC50 [4] [µg/mL] | MIC [4] [µg/mL] | IC50 [6] [µg/mL] | MIC [6] [µg/mL] | IC50 [8] [µg/mL] | MIC [8] [µg/mL] | zone of inhibition at 200 µg/mL [1] [mm] | zone of inhibition at 200 µg/mL [2] [mm] | zone of inhibition at 200 µg/mL [5] [mm] | zone of inhibition at 200 µg/mL [7] [mm] |
| --- | --- | --- | --- | --- | --- | --- | --- | --- | --- | --- | --- | --- |
| CC(C)CCC[C@@H](C)[C@H]1CC[C@H]2[C@@H]3CC=C4C/C(=N/Nc5nc6nc7ccccc7nc6o5)CC[C@]4(C)[C@H]3CC[C@]12C | 0.48 (≈ 0.845 µM) | 0.78 (≈ 1.37 µM) | 0.48 (≈ 0.845 µM) | 0.78 (≈ 1.37 µM) | 0.26 (≈ 0.458 µM) | 0.39 (≈ 0.687 µM) | 0.54 (≈ 0.951 µM) | 0.78 (≈ 1.37 µM) | 24.5 | 22.5 | 23.6 | 23.4 |
| CC(C)CCC[C@@H](C)[C@H]1CC[C@H]2[C@@H]3CC=C4C/C(=N/NC(N)=S)CC[C@]4(C)[C@H]3CC[C@]12C | 3.68 (≈ 8.04 µM) | 6.25 (≈ 13.7 µM) | 3.72 (≈ 8.13 µM) | 6.25 (≈ 13.7 µM) | 3.68 (≈ 8.04 µM) | 6.25 (≈ 13.7 µM) | 3.66 (≈ 8 µM) | 6.25 (≈ 13.7 µM) | 14.5 | 15.2 | 15.5 | 13.5 |
| CC(C)CCC[C@@H](C)[C@H]1CC[C@H]2[C@@H]3CC=C4C/C(=N/Nc5nc6nc7ccccc7nc6s5)CC[C@]4(C)[C@H]3CC[C@]12C | 0.54 (≈ 0.925 µM) | 0.78 (≈ 1.34 µM) | 0.28 (≈ 0.48 µM) | 0.39 (≈ 0.668 µM) | 0.24 (≈ 0.411 µM) | 0.39 (≈ 0.668 µM) | 0.52 (≈ 0.891 µM) | 0.78 (≈ 1.34 µM) | 20.4 | 21.2 | 21.4 | 23.2 |
| CC(C)CCC[C@@H](C)[C@H]1CC[C@H]2[C@@H]3CC=C4C[C@@H](O)CC[C@]4(C)[C@H]3CC[C@]12C [CHOLESTEROL] |  |  |  |  |  |  |  |  | 8.2 | 9.2 | 9 | 7.8 |
